The values below come from publication PMC9837035 (Nature Communications, 2023).

A word on the IC50: it is the concentration that inhibits the measured activity by half. Low values mean higher potency, high ones lower potency.

Several values for one entry are separate records, joined by “and”; a condition that tells them apart may be missing. Identical values can stand only once.

Data set [1] concerns H3K9me2 on the β-globin locus. As to the kind of experiment: ChIP-seq for H3K9me2 in HUDEP-2 cells. It counts as cell-based, human. As to conditions: HUDEP-2, 1 μM, 4 days. The protocol:
A total of 0.5–1 × 10^6 cells were cross-linked with 1% formaldehyde for 10 min at room temperature and the reaction was quenched with 250 mM glycine. Cross-linked cells were then lysed with buffer 1 (15 mM Tris-HCl (pH 7.5), 60 mM KCl, 15 mM NaCl, 5 mM MgCl2, 0.1 mM EGTA, 300 mM sucrose, […], 1 mM phenylmethanesulfonyl fluoride (PMSF), 0.5% NP40) and incubated on ice for 10 min. After centrifugation, the pellet was re-suspended in buffer 2 (15 mM Tris-HCl (pH 7.5), 60 mM KCl, 15 mM NaCl, 5 mM MgCl2, 0.1 mM EGTA, 1.2 M sucrose, […], 1 mM PMSF). After centrifugation, the pellet was then re-suspended in MNase buffer (50 mM Tris-HCl (pH 7.5), 1 mM CaCl2, 4 mM MgCl2, 320 mM sucrose, 1 mM PMSF) and digested with 100 U of micrococcal nuclease (Takara) at 37 °C for 15 min. […] The samples were analyzed by qPCR. […] ChIP-seq analysis were analyzed Cutadapt (V1.9.1) for QC, FastQC (V0.10.1) for QC assessment, Bowtie (V2.1.0) for mapping, strand cross-correlation (SCC) for ChIP quality assessment, MACS2 for peak calling, and R package ChIPpeakAnno for Peak annotated.

For data set [2], the system named is Salmonella typhimurium TA100. As to the kind of experiment: Ames test, TA100. Here is the method:
The Salmonella mutagenicity assay was performed by pre-incubating the test compounds for 20 min with Salmonella typhimurium strains TA98 and TA100, with and without metabolic activation (S9 mixture).
After this time 2 mL of top agar was added to the mixture and poured on to a plate containing minimum agar. The plates were incubated at 37 °C for 49 h and the His ± revertant colonies were counted manually and automatically by a colony counter (Colony analyzer CA-11D systems, System science Co.,Ltd.). The influence of metabolic activation was tested by adding 500 μL of 10% S9 mixture. All experiments were performed in duplicate. […] DMSO served as the negative control (100 μL/plate). The mutagenic index (MI, the average number of revertants per plate divided by the average number of revertants per plate from the negative control) was also calculated for each dose. A sample was considered positive when the MI was equal to or greater than 2 for at least one of the tested doses.
On the technique in general: The Ames test uses bacterial strains that need an amino acid and regain growth without it when mutated back.

The target of the next data set is NSD2 (E1099K) (Homo sapiens, UniProt O96028, E1099K).
Another data set has as its target EZH2 (Homo sapiens, UniProt Q15910). Kind of data set: biochemical.
Data set [3] has as its target MLL4. As to the kind of experiment: Radioisotope-based methyltransferase assay (selectivity). As to conditions: MLL4, 1 μM SAM.
Data set [4] deals with MLL4 (Homo sapiens, UniProt Q9UMN6). The data set is described as above. The following applies: MLL4, 1 μM SAM.
Chain of MLL4 (Homo sapiens, UniProt Q9UMN6) (Q9UMN6 2490-2715): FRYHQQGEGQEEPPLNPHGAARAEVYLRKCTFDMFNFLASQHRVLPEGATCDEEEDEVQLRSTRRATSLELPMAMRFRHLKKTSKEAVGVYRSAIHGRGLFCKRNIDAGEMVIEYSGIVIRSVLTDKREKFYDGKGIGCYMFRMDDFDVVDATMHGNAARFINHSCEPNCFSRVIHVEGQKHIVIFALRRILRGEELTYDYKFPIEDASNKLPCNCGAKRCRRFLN
Chain of MLL4 (Homo sapiens, UniProt Q9UMN6) (Q9UBL3 whole entry, further chain): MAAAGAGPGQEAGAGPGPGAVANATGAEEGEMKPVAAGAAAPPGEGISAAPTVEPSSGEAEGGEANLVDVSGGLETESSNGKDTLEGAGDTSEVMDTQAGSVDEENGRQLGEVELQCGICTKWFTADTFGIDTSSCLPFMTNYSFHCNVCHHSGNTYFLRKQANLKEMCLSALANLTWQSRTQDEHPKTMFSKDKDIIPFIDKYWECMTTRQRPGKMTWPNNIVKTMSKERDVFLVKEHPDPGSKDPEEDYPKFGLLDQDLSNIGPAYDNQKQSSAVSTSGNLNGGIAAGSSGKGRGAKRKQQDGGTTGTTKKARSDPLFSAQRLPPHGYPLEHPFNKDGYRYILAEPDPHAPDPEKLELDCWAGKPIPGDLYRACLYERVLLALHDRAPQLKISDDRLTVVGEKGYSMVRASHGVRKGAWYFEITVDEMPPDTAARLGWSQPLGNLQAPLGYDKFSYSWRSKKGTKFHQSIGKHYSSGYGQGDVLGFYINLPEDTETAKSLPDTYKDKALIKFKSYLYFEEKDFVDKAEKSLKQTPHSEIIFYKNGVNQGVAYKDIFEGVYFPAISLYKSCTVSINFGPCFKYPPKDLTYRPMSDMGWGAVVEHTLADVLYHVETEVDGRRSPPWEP
Chain of MLL4 (Homo sapiens, UniProt Q9UMN6) (Q9C005 whole entry, further chain): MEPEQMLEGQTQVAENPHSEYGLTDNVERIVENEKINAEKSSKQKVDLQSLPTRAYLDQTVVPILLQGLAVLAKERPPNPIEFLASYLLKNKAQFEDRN
Chain of MLL4 (Homo sapiens, UniProt Q9UMN6) (Q15291 whole entry, further chain): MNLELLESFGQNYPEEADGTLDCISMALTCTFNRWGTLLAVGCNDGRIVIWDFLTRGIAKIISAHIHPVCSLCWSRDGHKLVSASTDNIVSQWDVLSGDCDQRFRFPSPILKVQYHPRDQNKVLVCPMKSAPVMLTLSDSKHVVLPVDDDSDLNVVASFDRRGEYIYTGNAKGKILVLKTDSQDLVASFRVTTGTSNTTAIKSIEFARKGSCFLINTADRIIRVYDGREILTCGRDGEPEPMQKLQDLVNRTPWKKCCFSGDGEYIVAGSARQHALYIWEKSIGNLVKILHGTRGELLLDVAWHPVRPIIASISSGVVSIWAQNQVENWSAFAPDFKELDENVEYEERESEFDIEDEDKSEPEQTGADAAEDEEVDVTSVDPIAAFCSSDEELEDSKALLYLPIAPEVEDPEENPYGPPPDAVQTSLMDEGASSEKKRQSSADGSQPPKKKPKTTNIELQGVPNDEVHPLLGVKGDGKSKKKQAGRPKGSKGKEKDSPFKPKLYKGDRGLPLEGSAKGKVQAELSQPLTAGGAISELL

Chain of MLL4 (Q9UMN6 2490-2715): as the sequence (Q9UMN6 2490-2715) above
Chain of MLL4 (Q9UBL3 whole entry, further chain): as the sequence (Q9UBL3 whole entry, further chain) above
Chain of MLL4 (Q9C005 whole entry, further chain): as the sequence (Q9C005 whole entry, further chain) above
Chain of MLL4 (Q15291 whole entry, further chain): as the sequence (Q15291 whole entry, further chain) above
Chain of NSD2 (E1099K) (O96028 whole entry E1099K): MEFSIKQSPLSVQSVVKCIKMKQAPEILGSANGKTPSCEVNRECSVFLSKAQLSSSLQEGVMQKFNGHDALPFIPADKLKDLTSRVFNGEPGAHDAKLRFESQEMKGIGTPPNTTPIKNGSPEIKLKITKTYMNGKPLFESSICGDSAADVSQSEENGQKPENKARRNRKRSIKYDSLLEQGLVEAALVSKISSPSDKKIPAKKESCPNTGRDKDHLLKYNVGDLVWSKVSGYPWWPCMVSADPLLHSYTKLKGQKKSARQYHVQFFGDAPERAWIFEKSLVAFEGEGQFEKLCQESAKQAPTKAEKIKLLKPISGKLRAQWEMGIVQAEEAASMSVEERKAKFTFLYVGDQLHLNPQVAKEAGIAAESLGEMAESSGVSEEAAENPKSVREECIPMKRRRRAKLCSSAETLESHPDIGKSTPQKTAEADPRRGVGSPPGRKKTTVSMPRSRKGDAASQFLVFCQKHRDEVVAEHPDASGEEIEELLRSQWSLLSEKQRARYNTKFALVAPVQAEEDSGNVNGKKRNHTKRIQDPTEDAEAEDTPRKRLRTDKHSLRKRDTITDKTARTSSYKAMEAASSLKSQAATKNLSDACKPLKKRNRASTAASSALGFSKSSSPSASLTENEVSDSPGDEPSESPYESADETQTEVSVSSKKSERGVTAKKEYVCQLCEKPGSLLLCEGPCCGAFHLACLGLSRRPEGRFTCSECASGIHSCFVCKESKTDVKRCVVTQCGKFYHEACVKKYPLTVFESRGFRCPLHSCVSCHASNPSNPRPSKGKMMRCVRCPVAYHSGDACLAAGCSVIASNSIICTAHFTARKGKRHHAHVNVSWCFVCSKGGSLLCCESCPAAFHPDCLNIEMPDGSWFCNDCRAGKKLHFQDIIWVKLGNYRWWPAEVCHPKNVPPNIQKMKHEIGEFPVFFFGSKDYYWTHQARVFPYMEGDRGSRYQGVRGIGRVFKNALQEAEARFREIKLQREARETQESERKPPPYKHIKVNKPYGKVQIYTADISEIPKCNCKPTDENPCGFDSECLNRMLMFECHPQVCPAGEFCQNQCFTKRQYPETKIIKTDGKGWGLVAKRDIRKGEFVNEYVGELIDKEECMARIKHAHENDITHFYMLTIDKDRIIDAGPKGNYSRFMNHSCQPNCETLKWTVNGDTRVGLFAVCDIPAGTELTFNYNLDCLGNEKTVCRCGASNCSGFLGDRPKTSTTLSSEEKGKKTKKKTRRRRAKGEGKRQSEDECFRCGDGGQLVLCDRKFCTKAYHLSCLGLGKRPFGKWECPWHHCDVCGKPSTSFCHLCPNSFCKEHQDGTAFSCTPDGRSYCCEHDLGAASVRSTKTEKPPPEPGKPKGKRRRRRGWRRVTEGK

Take `Cc1c(C(=O)NC(CCC2CC2)C(=O)Nc2ccc(C#N)cc2)[nH]c2c1C(=O)CC(C)(C)C2` (stereo not shown) [RK-701]: the “occupancies of H3K9me2 throughout the β-globin gene locus” value in data set [1] was “reduced”. Also, the Number of reverants/plate in data set [2] (TA100, + S9, base pair substitution mutation, 4.88 μg/plate) was 107 and 119; in data set [2] (TA100, + S9, base pair substitution mutation, 19.5 μg/plate) it was 117 and 120; in data set [2] (TA100, + S9, base pair substitution mutation, 78.1 μg/plate) it was 117 and 128; in data set [2] (TA100, + S9, base pair substitution mutation, 313 μg/plate), 97 and 127; in data set [2] (TA100, + S9, base pair substitution mutation, 1250* μg/plate), 98 and 121; in data set [2] (TA100, + S9, base pair substitution mutation, 2500* μg/plate), 117 and 90. For the same molecule, the Number of reverants/plate in data set [2] (TA100, + S9, base pair substitution mutation, 5000* μg/plate) is 111 and 110; in data set [2] (TA100, - S9, base pair substitution mutation, 4.88 μg/plate) it was 110 and 135; in data set [2] (TA100, - S9, base pair substitution mutation, 19.5 μg/plate) it was 102 and 108; in data set [2] (TA100, - S9, base pair substitution mutation, 78.1 μg/plate), 90 and 106; in data set [2] (TA100, - S9, base pair substitution mutation, 313 μg/plate) it was 125 and 110; in data set [2] (TA100, - S9, base pair substitution mutation, 1250* μg/plate), 99 and 94. Moreover, the Number of reverants/plate in data set [2] (TA100, - S9, base pair substitution mutation, 2500* μg/plate) was 98 and 108; in data set [2] (TA100, - S9, base pair substitution mutation, 5000* μg/plate), 93 and 98. Also, the Number of revertants/plate in data set [2] (TA100, +S9, 4.88 μg/plate) is recorded as 113; in data set [2] (TA100, +S9, 19.5 μg/plate), 119; in data set [2] (TA100, +S9, 78.1 μg/plate), 123; in data set [2] (TA100, +S9, 313 μg/plate), 112; in data set [2] (TA100, +S9, 1250 μg/plate, insoluble material), 110; in data set [2] (TA100, +S9, 2500 μg/plate, insoluble material), 104. Besides, the Number of revertants/plate amounted to 111 in data set [2] (TA100, +S9, 5000 μg/plate, insoluble material); 123 in data set [2] (TA100, -S9, 4.88 μg/plate); 105 in data set [2] (TA100, -S9, 19.5 μg/plate); 98 in data set [2] (TA100, -S9, 78.1 μg/plate); 118 in data set [2] (TA100, -S9, 313 μg/plate); 97 in data set [2] (TA100, -S9, 1250 μg/plate, insoluble material). The Number of revertants/plate was 103 in data set [2] (TA100, -S9, 2500 μg/plate, insoluble material) and 96 in data set [2] (TA100, -S9, 5000 μg/plate, insoluble material). In data set [2] (TA100, regardless of metabolic activation), the mutagenicity entry is listed as “no mutagenicity”. Also, the IC50 against NSD2 (E1099K), against EZH2 and against MLL4 [3] was more than 100 µM throughout.
As for `Nc1ncnc2c1ncn2[C@@H]1O[C@H](CSCC[C@H](N)C(=O)O)[C@@H](O)[C@H]1O` [SAH, S-(5'-Adenosyl)-L-homocysteine, reference compound], on MLL4 [4], inhibition was half-maximal at 1.1 µM (IC50).
